“Also recorded” adds a separate entry of the source.
What was measured:
mice = conditions: daily intraperitoneal 2.8 μmol/kg (880 μg/kg); cited from earlier work
DA and DA.E3chr12 rats = conditions: PIA
Description: Arthritic development was monitored in all limbs using a macroscopic scoring system. Briefly, 1 point was given for each swollen or red toe, 1 point for each swollen midfoot, digit, or knuckle, and 5 points for a swollen ankle. The maximum score for a limb was 15 points, and the maximum score for a rat was 60 points.
For administration, 50 mg of DPI was dissolved in 250 mL DMSO/PBS. About 0.5 mL was injected intraperitoneally into rats on day 0, 2, 3, 4, 5, 6, 7, 8, 10, 12, 14, 17, 19, and 21.
Arthritis development was monitored in all limbs.

NADPH complex [1] = test: Oxygen burst studies, activation of NADPH complex (cell type not stated); format: cell-based; conditions: oxygen burst studies / WST-1 assay
Description: (§1) The unsaturated fatty acids C14:1-C24:1 (myristoleic acid, palmitoleic acid, oleic acid, linoleic acid, linolenic acid, 11c-eicosenoic acid, arachidonic acid, erucic acid, and neuronic acid) and squalenee (Sigma) were also tested.
(§2) 10 μL of each of the oils to be tested was added with 9 μL of WST1 to the wells of a 96 well microtitre plate. 10^6 cells/mL (100 μL of 10^7 cells/mL) were added to each well and the color change measured in a spectrophotometer at 450 nm at 37° for 60 minutes (one measurement/min).
10 μL each of the oils to be tested were added to the wells of a 96 well microtitre plate. 50 μL of cytochrome C (4 mg/mL) and […] (50 μL of 10^7 cells/mL) were added to each well and the absorbance measured in a spectrophotometer at 550 nm at 37° C. for 60 minutes (one measurement/minute).

DA rats [2] = test: Arthritis-inducing effect of oils injected intradermally at the base of the tail; format: in vivo, Rat (Rattus norvegicus); conditions: oil injected intradermally at base of tail, scored days 12-31, FIG. 10
Text: The arthritis-inducing effects of the oils was examined by injecting the oils intradermally into DA rats. […] Note that p<0.05 for alkanes shorter than C15 compared to C19. All statistics evaluated with student's t-test. N=4 for all groups.

DA rats [3] = test: Treatment of active PIA with phytol or undecane; format: in vivo, Rat (Rattus norvegicus); conditions: 200 μL i.p. or i.d. at day 21 and day 26; FIG. 23
Description: Groups of DA rats were injected with […] at day 0. The […] (150 μL) was injected intra-dermal at the base of the tail. The rats were scored from day 9 using the extended scoring system (see above). Then, the rats were treated at day 21 and at day 26 with one of the following alternatives: (1) 200 μL phytol intra-peritoneal; (2) 200 μL phytol intra-dermal at the base of the tail; (3) 200 μL undecane intra-peritoneal; (4) 200 μL undecane intra-dermal at the base of the tail; or (5) control untreated.

NADPH complex [4] = molecular target: T1, NADPH complex (Homo sapiens, UniProt P14598); test: Oxidative burst WST-1 assay, HL60 cells; format: cell-based; conditions: FIG. 9B
T1 construct: endogenous in cells; host or cells: HL60 cells differentiated with 1.25% DMSO
T1 sequence (P14598 1-390): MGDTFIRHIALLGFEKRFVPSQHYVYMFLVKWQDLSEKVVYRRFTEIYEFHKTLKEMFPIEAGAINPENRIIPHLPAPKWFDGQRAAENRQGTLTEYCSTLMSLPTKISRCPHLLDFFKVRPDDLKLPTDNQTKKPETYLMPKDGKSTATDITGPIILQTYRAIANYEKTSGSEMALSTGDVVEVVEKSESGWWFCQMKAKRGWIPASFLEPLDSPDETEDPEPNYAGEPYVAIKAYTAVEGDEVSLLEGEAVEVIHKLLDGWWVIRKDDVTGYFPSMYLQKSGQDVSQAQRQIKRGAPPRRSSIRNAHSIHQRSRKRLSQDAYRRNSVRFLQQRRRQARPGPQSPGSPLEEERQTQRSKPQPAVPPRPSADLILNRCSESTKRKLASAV
Description: The unsaturated fatty acids C14:1-C24:1 (myristoleic acid, palmitoleic acid, oleic acid, linoleic acid, linolenic acid, 11c-eicosenoic acid, arachidonic acid, erucic acid, and neuronic acid) and squalenee (Sigma) were also tested. The oils were solubilized by dilution in cyclodextrin (100 mM in PBS). Human […] cell line HL60 was cultured in Dulbeccos complete medium with Hepes, 10% Fetal calf serum, and Penicillin-Streptomycin. HL60 cells differentiated to neutrophil-macrophages six days after addition of 1.25% DMSO. The cells were spun down at 1200 rpm for 5 minutes and then washed with PBS twice. The cells were then resuspended in PBS to a concentration of about 10^7 cells/mL. 10 μL of each of the oils to be tested was added with 9 μL of WST1 to the wells of a 96 well microtitre plate. 10^6 cells/mL (100 μL of 10^7 cells/mL) were added to each well and the color change measured in a spectrophotometer at 450 nm at 37° for 60 minutes (one measurement/min).

DA rats [5] = test: Treatment/prevention of pristane-induced arthritis with undecane; format: in vivo, Rat (Rattus norvegicus)
Description: Groups of DA rats were injected intradermally at the base of the tail with 200 μL of the oils as indicated below: • Undecane day −10, […] day 0; • Olive oil day −10, […] day 0; • Undecane day −5, […] day 0; • Undecanol day −5, […] day 0; Olive oil day −5, […] day 0; • Undecane day 5, […] day 0; and • Olive oil day 5, […] day 0.
The rats were scored every other day starting at day 11 according to the extended scoring system where every red or swollen toe or mid foot scored one point, and a red and swollen ankle scored five points, yielding a total of 15 points/limb and 60 points/rat. Olive oil and undecanol were used as controls.

NADPH complex [6] = test: Oxidative burst WST-1 assay, E3 rat peritoneal cells; format: cell-based; conditions: peritoneal cells from E3 rat after thioglycolate; FIG. 9A
Description: as §1, with “tested. The oils were solubilized by dilution in cyclodextrin (100 mM in PBS).” for “tested.”
5 mL thioglycolate (2.4%) was injected intraperitoneally in E3 rats to elicit recruitment of neutrophils 16 hours before sacrifice. 40 mL PBS+hepes (1%) was injected into the peritoneum and the cell suspension extracted. Red blood cells were lysed with 0.84% NH4Cl, and WBC were washed in PBS and resuspended in PBS at a concentration of about 10^7 cells/mL.
as §2

[7] = In vivo distribution of 14C-labeled oils; parameters: species or system Rat (Rattus norvegicus); conditions: for arthritis in rats treated with radioactively-labeled oils: 200 μL i.d. at base of tail, DA rats, FIG. 13; for extent of distribution to the lymph nodes: hexadecane compared with oleic acid
Description: [1-14C]-Hexadecane and [1-14C]-Oleic acid were purchased from Amersham. The oils were injected intradermally at the base of the tail in 18 DA rats (200 μL). At day 10, the organs (lymph nodes, spleen, liver and kidney) of three rats from each group were collected. The organs were weighed and homogenized in a total volume of 2 mL PBS and frozen. The same procedure was followed at day 20 and at day 30. 1 mL of the homogenised samples was then added to 10 mL Ready Safe (Beckman) and counted in a beta counter. The distribution of radioactive labelled hexadecane to the lymph nodes was also inspected at earlier time points (day 3, day 6, day 10, and day 13).

[8] = in vivo; cited from earlier work
DA rats [9] = test: Treatment of hexadecane-induced arthritis with hexadecene; format: in vivo, Rat (Rattus norvegicus); conditions: rat, in vivo
Description: Groups of DA rats were injected i.d. at the base of the tail as follows: • Hexadecane 200 μL day 0; • Hexadecene 200 μL day 0; • Hexadecene 200 μL day −5, Hexadecane 200 μL day 0; • Olive oil 200 μL day −5, Hexadecane 200 μL day 0; • Hexadecene 200 μL day +5, Hexadecane 200 μL day 0; and • Olive oil day 200 μL +5, Hexadecane 200 μL day 0.
The rats were scored as indicated above. Olive oil was used as a control.

[10] = in vivo; cited from earlier work; remark: listed apart in the source
DA rats [11] = test: Route of administration of phytol in treatment of PIA; format: in vivo, Rat (Rattus norvegicus); conditions: FIG. 17
Description: Groups of DA rats were treated with phytol according to one of the following treatment regimens at day −5 and at day +5. All rats were injected with […] (200 μL) at day 0 intradermally at the base of the tail. Phytol was administered to groups of rats as follows: • 25 μL phytol intranasally (i.n.); • 200 μL phytol intraperitoneally (i.p.); • 200 μL phytol intradermally at the base of the tail (i.d.); and • 1 mL phytol per os (p.o.).
The rats were scored from day 9 using the extended scoring system (as discussed previously).

DA rats [12] = test: Collagen induced arthritis (CIA) in rats treated with phytol; format: in vivo, Rat (Rattus norvegicus); conditions: FIG. 22
Description: DA rats were treated according to one of the following alternatives: (1) 200 μL phytol intra-dermal at the base of the tail at day −10; (2) 200 μL phytol intra-dermal at the base of the tail at day −5; (3) 200 μL phytol intra-peritoneal at day −5 and day +5; or (4) control untreated. CIA was induced in all animals at day 0 by injecting […] of collagen II dissolved in 75 μL 0.1 M Acetic acid and emulsified in 75 μL IFA. The rats were scored from day 10 using the extended scoring system (see above).

DA rats [13] = test: Treatment of experimental allergic encephalomyelitis (EAE) with phytol; format: in vivo, Rat (Rattus norvegicus); conditions: 200 μL phytol at day -10 and day +5; olive oil control; p<0.05; FIG. 16
Description: Groups of DA rats were injected at the base of the tail with 200 μL phytol at day -10, day -5, and day +5. Olive oil was used as a control. At day 0, all rats were treated (immunized) with 200 μL SCH (DA spinal cord homogenate, to induce EAE) i.d. at the base of the tail. The rats were then scored according to the following scale for 40 days: • 0=Normal • 1=Tail weakness • 2=Tail paralysis • 3=Tail paralysis and mild […] • 4=Tail paralysis and severe […] • 5=Tail paralysis and paralysis of one limb • 6=Tail paralysis and paralysis of a pair of limbs • 7=Tetra-paresis • 8=Pre-morbid or dead.

## c1ccc2c(c1)[I+]c1ccccc1-2 [DPI, diphenyleneiodonium chloride]
mice
  reduction of arthritis: 50%
DA and DA.E3chr12 rats; DPI 1.25 μmol/kg i.p. on days 0-21, FIG. 6
  severity of arthritis: increased severity of arthritis
DA and DA.E3chr12 rats; DPI-treated vs control rats, FIG. 7
  accumulated arthritis scores: greater accumulated arthritis scores than control rats

## CCCCCCCCCCCCCCCCC [heptadecane]
NADPH complex [1]
  activation of the NADPH complex: activate the NADPH complex
DA rats [2]
  arthritis induction: induce arthritis

## CCCCCCCCCCC [undecane]
DA rats [3]
  effect on active arthritis in PIA rat model: effective against active arthritis
NADPH complex [1]
  activation of the NADPH complex: activated the NADPH complex
DA rats [2]
  arthritis induction: did not induce arthritis
NADPH complex [4]
  activation of the oxidative burst (WST-1 assay): potent activator
DA rats [5]; 200 μL i.d. day -5, pristane day 0, p<0.05, FIG. 11B, 11C
  additive score and maximum score of PIA, undecane vs olive oil: significant difference
DA rats [5]; 200 μL i.d. day -5, pristane day 0, p=0.05 additive, p<0.05 maximum
  additive score and maximum score of PIA, undecane vs undecanol: significant difference
DA rats [5]; 200 μL i.d., pristane day 0
  arthritis score / preventive effect, undecane day +5 compared with day -10 or day -5: slightly higher score; also recorded: did not show as significant a preventive effect as at day −10 or at day −5
NADPH complex [6]
  activation of the oxidative burst (WST-1 assay): potent activator

## CCCCCCCCCCCCCCCC [hexadecane]
[7]
  arthritis in rats treated with radioactively-labeled oils: only the rats injected with hexadecane had arthritis
  extent of distribution to the lymph nodes: higher extent than oleic acid
[7]; FIG. 15
  time of maximum accumulation in the lymph nodes: 10 days
[7]; days 3, 6, 10, 13 and later, FIG. 15
  time course of accumulation in the lymph nodes: increase in the accumulation of hexadecane in the lymph nodes until day 10; also recorded: slowly decreased
[8]
  distribution of 14C-labeled hexadecane: disseminated predominantly to the lymph nodes
NADPH complex [1]
  activation of the NADPH complex: activated the complex
DA rats [2]
  arthritis induction: induced arthritis
DA rats [9]
  arthritis-inducing capacity: induces arthritis
[10]
  arthritis induction: induce arthritis

## C/C(=C\CO)CCC[C@H](C)CCC[C@H](C)CCCC(C)C [phytol]
DA rats [11]; 25 μL phytol i.n. day -5 and day +5
  effect on PIA: ameliorative and preventive effects
DA rats [11]; 200 μL phytol i.d. day -5 and day +5
  effect on PIA: ameliorating and preventive effect
DA rats [11]; 200 μL phytol i.p. day -5 and day +5
  effect on PIA: ameliorative and preventive effects
DA rats [3]
  effect on active arthritis in PIA rat model: effective against active arthritis
DA rats [12]; 200 μL phytol intra-dermal day -10 or day -5
  development of arthritis in CIA rat model: prevented development of arthritis
DA rats [12]; 200 μL phytol intra-peritoneal day -5 and day +5
  development of arthritis in CIA rat model: prevented development of arthritis
DA rats [13]
  additive score and maximum score of EAE, phytol vs control rats: significant difference
[10]
  arthritis induction: do not

## CCCCCCCCCCCCCCC [Pentadecane, pentadecane]
NADPH complex [1]
  activation of the NADPH complex: did not activate the NADPH complex
DA rats [2]
  arthritis induction: did induce arthritis

## CCCCCCCCCCCCCCCCCC [octadecane]
NADPH complex [1]
  activation of the NADPH complex: activate the NADPH complex
DA rats [2]
  arthritis induction: induce arthritis

## CCCCCCCC/C=C\CCCCCCCC(=O)O [oleic acid]
[7]
  arthritis in rats treated with radioactively-labeled oils: does not induce arthritis
  extent of distribution to the lymph nodes: not distributed to the lymph nodes to as high an extent as the hexadecane

From US7943338B2, “Autoimmune conditions and NADPH oxidase defects” (Arexis AB, priority 2002, dated 2011)
